{"source": "patent US20090325807A1", "about": "“Method of Improving Plant Growth” (Bayer Cropscience AG, priority 2004, published 2009)", "origin": "cited, not measured here", "test_system": "cucumis melo L.", "conditions": "in the absence of insects", "data": [{"molecule": "O=[N+]([O-])NC1=NCCN1Cc1ccc(Cl)nc1", "note": "[imidacloprid, Imidacloprid]", "values": [{"measurement": "growth effect", "result": "no growth effect"}]}]}
